Tests used:
human STING WT (R232) = target: T1, human STING WT (R232); assay: Human STING HTRF binding assay (competitive, Cisbio 64BDSTGPEG); settings: 6His tagged human STING WT R232, competition with STING ligand-d2
T1 construct: purchased Cisbio 64BDSTGPEG
Description: Binders to human STING WT (R232) were identified using a competitive HTRF assay format (Cisbio 64BDSTGPEG), which uses d2-labeled STING ligand, a 6His tagged human STING protein, and an anti 6His Cryptate-labeled antibody. Compounds compete with the STING ligand-d2 and thereby prevents FRET from occurring, which can be measured by an EnVision™ reader (PerkinElmer).
Assay method: Compounds were delivered as 10 mM DMSO solution, serially diluted by an Agilent Bravo Workstation and transferred to the 384 well assay plate (Perkin Elmer #6005359) using a Cybiwell dispenser. Typically, 8 concentrations were used with the highest concentration at 10 μM or 1 μM in the final assay volume followed by ^˜1:5 dilution steps. DMSO concentration was set to 1% in the final assay volume. The 384 well assay plate contained 20 test compounds and DMSO in column 23 and 24. A cGAMP standard dilution row was prepared according to the manufacturer and transferred to each assay plate. After transfer of compound solution or dilution buffer for negative (high) and positive (low) controls, 5 μl of the human STING protein (cyclic binding domain (residues 138-379) of the WT R232 human version, fused to a 6 His tag at the Nter part; 1:50 dilution in detection buffer) were dispensed to all wells except of the positive control, which received detection buffer only. Plates were the centrifuged for 20 sec at 1000 rpm. After that, 10 μl of Anti-6His-Cryptate antibody/Sting ligand-d2 mix was added to all wells using a Multidrop combi dispenser, followed by another 20 sec/1000 rpm centrifugation step. After an incubation of the plates for 180 min at room temperature, […] at […] (HTRF ratio) was measured using an Envison Reader (PerkinElmer)
Data evaluation and calculation: For data evaluation and calculation, HTRF ratios were calibrated using the cGAMP standard curve. After that, the measurement of the low control was set as 0% control and the measurement of the high control was set as 100% control. The IC50 values were calculated using the standard 4 parameter logistic regression formula. Calculation: [y=(a−d)/(1+(x/c)^b)+d], a=low value, d=high value; x=conc M; c=IC50 M; b=slope;

STING = tested on: T2, STING; assay: Human whole blood assay (HWBA), cGAMP-stimulated IFNα2α production; type: cell-based; settings: human whole blood stimulated by cGAMP
T2 construct: from tissue; host or cells: human whole blood from healthy donors
Description: For the detection of STING inhibition in physiological environment human whole blood was stimulated by the cyclic dinucleotide cGAMP. Pathway activity was monitored by measuring the IFNα2α production.
Assay method: Compounds were delivered as 10 mM DMSO solution and serial diluted and transferred to the 96-well Cell culture Plate (Corning #3595), prefilled with 20 μl OptiMEM (Gibco #11058-021) in each well, using an Echo acoustic dispenser. Typically, 8 concentrations were used with the highest concentration at 10 μM in the final assay volume followed by ^˜1:5 dilution steps. DMSO concentration was set to 0.1% in the final assay volume. The 96 well assay plate contained 9 test compounds, a reference compound and DMSO in control wells.
Collection of human whole blood from 3 or more healthy donors (male or female, no medication for 7 days, exception contraceptive and thyroxine) as Na-citrate blood (e.g. 3.8% in Monovettes from Sarstedt) is conducted in parallel. Whole blood was kept at room temperature for a maximum of 3 hours after collection until use in the assay.
160 μl of the whole blood samples were transferred to each well of the 96-well assay plates filled with compound/OptiMEM. All assay plates are prepared as duplicates with blood from different donors. Blood plates were kept at room temperature for 60 minutes and continuous shaking with 450 rpm, covered with the lid, but not sealed.
A 10× cGAMP assay solution was diluted from a 2 mM stock solution in 1×HBSS immediately before use at room temperature. 20 μl of the 10× cGAMP/HBSS were added to all compound and all high control wells, whereas HBSS only was added to all low control wells.
After covering assay plates with aera seals and the lid, blood plates were kept at room temperature for 30 minutes and continuous shaking with 450 rpm, followed by an overnight incubation of 22 h at 37° C. in the incubator, without shaking.
For the detection of IFNα-2α in human plasma, the biotinylated capture antibody (Antibody set IFNA2, Meso Scale Diagnostics #B21VH-3, including coating and capture antibody) was diluted 1:17.5 in Diluent 100 (Meso Scale Diagnostics #R50AA-4, according to the manufacturer. U-Plex MSD GOLD 96-well Small Spot Streptavidin SECTOR Plates (Meso Scale Diagnostics #L45SA-5) were coated with 25 μl diluted capture antibody. Coated plates were incubated for 60 min at room temperature under continuous shaking at 700 rpm. MSD IFNα-2α plates were washed three times with 150 μl wash buffer (1×HBSS, 0.05% Tween).
After blocking the plates with 100 μl block solution/well (1×HBSS with 0.2% Tween, 2% BSA) for 60 min at room temperature and continuous shaking at 700 rpm, plates were emptied as dry as possible by dumping just before continuing with the human plasma. Whole Blood assay plates were centrifuged at 1600 rpm for 10 minutes. 25 μl of supernatant was transferred with a pipetting robotics from each whole blood plate to the corresponding IFNα-2α plate. Plates were sealed with microplate seals and kept at room temperature again under continuous shaking at 700 rpm for two hours. Next MSD IFNα-2α plates were washed three times with 150 μl wash buffer (1×HBSS, 0.05% Tween), before adding 25 μl MSD SULFO-TAG IFNα-2α Antibody solution (1:100 diluted in Diluent 3 (Meso Scale Diagnostics #R50AP-2) to each well of the plates. Afterwards plates were sealed with microplate seals and kept at room temperature again under continuous shaking at 700 rpm for two hours. Finally, MSD IFNα-2α plates were washed three times with 150 μl wash buffer (1×HBSS, 0.05% Tween). 150 μl 2× Read buffer was added to each well and plates were immediately measured with the MSD Sector S600 Reader using the vendor barcode.
Data evaluation and calculation: For data evaluation and calculation, % control calculation of each well was based on the mean of high (cGAMP stimulated control) and mean of low (unstimulated control) controls by using the following formula: […]

| Compound | IC50 (human STING WT (R232)) [nM] | IC50 (STING) [nM] |
| --- | --- | --- |
| COc1nn(C2CC2)cc1-n1cc2c(-c3nc(-c4ccc(C(N)=O)cc4OCC(F)F)n(C)c3C3CC3)cccc2n1 [Example 6, 4-{5-cyclopropyl-4-[2-(1-cyclopropyl-3-methoxy-1H-pyrazol-4-yl)-2H-indazol-4-yl]-1-methyl-1H-imidazol-2-yl}-3-(2,2-difluoroethoxy)benzamide] | 16 | 58 |
| CC[P@@](C)(=O)c1ccc(-c2nc(-c3cccc4nn(-c5cn(C6CC6)nc5OC)cc34)c(C3CC3)n2C)c(OC(F)(F)F)c1 [Example 13, 4-(5-cyclopropyl-2-{4-[(R)-ethyl(methyl)phosphoryl]-2-(trifluoromethoxy)phenyl}-1-methyl-1H-imidazol-4-yl)-2-(1-cyclopropyl-3-methoxy-1H-pyrazol-4-yl)-2H-indazole] | 18.9 | 38 |
| CC[P@](C)(=O)c1ccc(-c2nc(-c3cccc4nn(-c5cc(C(F)F)n(C)n5)cc34)c(C3CC3)n2C)c(OC(F)(F)F)c1 [Example 7, 4-(5-cyclopropyl-2-{4-[(S)-ethyl(methyl)phosphoryl]-2-(trifluoromethoxy)phenyl}-1-methyl-1H-imidazol-4-yl)-2-[5-(difluoromethyl)-1-methyl-1H-pyrazol-3-yl]-2H-indazole] | 19.7 | 57 |
| COc1nn(C)cc1-n1cc2c(-c3nc(-c4ccc(C(=O)N(C)C)cc4OC(F)(F)F)n(C)c3C3CC3)cccc2n1 [Example 3, 4-{5-cyclopropyl-4-[2-(3-methoxy-1-methyl-1H-pyrazol-4-yl)-2H-indazol-4-yl]-1-methyl-1H-imidazol-2-yl}-N,N-dimethyl-3-(trifluoromethoxy)benzamide] | 122 | 2600 |
